Reference: ChEMBL document CHEMBL1133221 (2000)
Activity calls are given as the source filed them. No cut-off for these calls is given here.

Tests used:
[1] = system: Microsporum canis; test: Inhibitory activity against chitin synthase from Microsporum canis at 128 ug/mL; No inhibition
[2] = system: Aspergillus fumigatus; test: Inhibitory activity against chitin synthase from Aspergillus fumigatus at 128 ug/mL; No inhibition
[3] = system: trychophyton mentagrophytes; test: Inhibitory activity against chitin synthase from Trichophyton mentagrophytes at 128 ug/mL; No inhibition
[4] = system: Cryptococcus neoformans; test: Inhibitory activity against chitin synthase from Cryptococcus neoformans at 128 ug/mL; No inhibition
[5] = target: Chitin synthase 1 (Candida albicans) (UniProt P23316); test: Inhibitory activity against chitin synthase from Candida albicans at 128 ug/mL; No inhibition
[6] = Inhibitory activity against chitin synthase from Saccharomyces cerevisiae at a concentration up to 500 uM; No inhibition
[7] = Inhibitory activity against chitin synthase from Saccharomyces cerevisiae

Sequence of Chitin synthase 1 (Candida albicans) (P23316 whole entry, looked up): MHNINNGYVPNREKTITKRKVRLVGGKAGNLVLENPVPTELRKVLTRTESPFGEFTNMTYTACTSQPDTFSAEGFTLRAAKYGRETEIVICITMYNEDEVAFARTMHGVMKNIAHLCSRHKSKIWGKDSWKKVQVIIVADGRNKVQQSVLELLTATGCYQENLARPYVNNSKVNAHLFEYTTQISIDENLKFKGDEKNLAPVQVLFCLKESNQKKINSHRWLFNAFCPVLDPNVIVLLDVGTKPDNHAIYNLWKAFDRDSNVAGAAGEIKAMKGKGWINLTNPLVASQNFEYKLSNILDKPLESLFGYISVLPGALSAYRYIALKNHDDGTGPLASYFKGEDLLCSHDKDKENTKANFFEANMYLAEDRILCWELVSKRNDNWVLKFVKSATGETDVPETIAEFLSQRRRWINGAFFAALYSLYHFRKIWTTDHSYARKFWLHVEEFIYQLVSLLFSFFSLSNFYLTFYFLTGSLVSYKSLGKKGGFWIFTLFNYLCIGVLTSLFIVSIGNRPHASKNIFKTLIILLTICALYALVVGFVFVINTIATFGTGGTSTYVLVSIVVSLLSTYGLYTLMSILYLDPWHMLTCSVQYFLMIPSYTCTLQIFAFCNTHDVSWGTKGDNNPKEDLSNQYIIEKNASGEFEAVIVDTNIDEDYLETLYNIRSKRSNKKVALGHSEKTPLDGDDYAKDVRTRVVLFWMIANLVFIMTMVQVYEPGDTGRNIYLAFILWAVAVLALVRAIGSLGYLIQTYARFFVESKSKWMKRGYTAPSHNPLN

Activity [1]	Activity [2]	Activity [3]	Activity [4]	Activity [5]	Ki [6]	Ki [7] [nM]	SMILES
inactive	inactive	inactive	inactive	inactive	Not Active	–	CCOP(=O)(OCC)C(F)(F)C1C(O)C(O)C(CO)N1CCNC1C(CO)OC(OC)C(NC(C)=O)C1O (configuration not stated)
–	–	–	–	–	–	600	C[C@@H]([C@H](N)C(=O)N[C@H](C(=O)O)[C@H]1O[C@@H](n2ccc(=O)[nH]c2=O)[C@H](O)[C@@H]1O)[C@H](O)c1ccc(O)cn1 [NIKKOMYCIN]
